Laboratory results taken from PMC5341695 (Biochemical pharmacology, 2016).
“And” between values parts separate entries of the source, which are not always exact repeats. Equal entries are not always repeated. Where two headings read alike, the source gives them in different places.

Columns and labels:
[1] = target: T1, mouse Pgp reconstituted in liposomes (Mus musculus, UniProt P21447); conditions: 3.2 mM (saturating) AMPPNP, no verapamil
[2] = target: mouse Pgp reconstituted into liposomes (Mus musculus, UniProt P21447)
[3] = target: T1, mouse Pgp reconstituted in liposomes; assay: AMPPNP-induced quenching of Pgp intrinsic tryptophan fluorescence
[4] = target: wild-type his-tagged mouse Pgp transporter reconstituted into liposomes (Mus musculus, UniProt P21447); assay: Pgp-coupled ATPase activity
[5] = 3.2 mM AMPPNP, 1 µM Pgp, no verapamil

Nc1ncnc2c1ncn2[C@@H]1O[C@H](COP(=O)([O-])OP(=O)([O-])NP(=O)([O-])[O-])[C@@H](O)[C@H]1O.[Li+].[Li+].[Li+].[Li+] [AMPPNP, Adenosine 5’-(β,γ-imido)triphosphate lithium salt]
KSV acrylamide quenching [1]: 0.97 ± 0.16 M⁻¹
decrease of average STDD amplification factor of AMPPNP ([2]; 3.2 mM AMPPNP and 8 µM verapamil): 15%
increase of average STDD amplification factors of AMPPNP ([2]; 3.2 mM AMPPNP and 1 mM verapamil): more than 20%
average STDD amplification factor for AMPPNP [2, 5]: 63 ± 51
average STDD amplification factor, purine base [2, 5]: 79 ± 64
average STDD amplification factor, ribose sugar [2, 5]: 40 ± 11
K1 (low concentration phase) ([3]; 37 °C, data not shown): 8 µM⁻¹
K2 (high concentration phase) ([3]; 37 °C, data not shown): 0.017 µM⁻¹
K1 (low concentration phase, dynamic quenching) ([3]; fit to equation 6): 6.66 +/− 3.41 µM ^−1
K2 (high concentration phase, static quenching) ([3]; fit to equation 6): 0.022 +/− 0.006 µM ^−1
fraction quenched, high concentration phase (FH/F0) ([3]; fit to equation 6): 0.074
fraction quenched, low concentration phase (FL/F0) ([3]; fit to equation 6): 0.16
Kd ([3]; read-out: KD of AMPPNP for Pgp, from high concentration (static) quenching phase): 45 µM
decrease of Pgp tryptophan fluorescence ([3]; saturating AMPPNP concentration, 1 µM Pgp): about 15%

Nc1ncnc2c1ncn2[C@@H]1O[C@H](COP(=O)(O)OP(=O)([O-])OP(=O)([O-])O)[C@@H](O)[C@H]1O.[Na+].[Na+] [ATP, Disodium ATP]
VMAX basal Pgp ATPase activity ([4]; ATP titration in the absence of verapamil, Equation 1): 619 ± 18 nmol/min/mg
increase of ATP affinity in the presence of two bound verapamil molecules ([4]; COPASI fit, KD5 versus KD3, saturating verapamil): ~ 4 fold and 4 fold
Vmax0 (basal ATPase activity, E-ATP) ([4]; COPASI fit, average over […]-3.2 mM ATP): 672 ± 93 nmol/min/mg
VMAX of Pgp-coupled ATPase with ATP alone (discussion) ([4]; no verapamil): 500 to 700 nmol/min/mg
Kd ([4]; read-out: KD4 (ATP to EV, one bound verapamil), COPASI fit, 0.5 mM ATP data set): 1490 µM
Kd ([4]; read-out: KD4 (ATP to EV, one bound verapamil), COPASI fit, 1 mM ATP data set): 1340 µM
Kd ([4]; read-out: KD4 (ATP to EV, one bound verapamil), COPASI fit, 2 mM ATP data set): 1030 µM
Kd ([4]; read-out: KD4 (ATP to EV, one bound verapamil), COPASI fit, 3.2 mM ATP data set): 1000 µM
Kd ([4]; read-out: KD4 (ATP to EV, one bound verapamil), COPASI fit, […] ATP data set): 1350 µM
Kd ([4]; read-out: KD5 (ATP to EVV, two bound verapamil), COPASI fit, 3.2 mM ATP data set): 210 µM
Km ([4]; read-out: Km for ATP in the presence of Na3VO4, 200 µM Na3VO4, range of ATP concentrations, Equation 1): 906 ± 476 µM

[Na+].[Na+].[Na+].[O]=[V]([O-])([O-])[O-] [Na3VO4, sodium orthovanadate]
mode of inhibition of Pgp-mediated ATP hydrolysis ([4]; 200 µM): non-competitive inhibitor
VMAX Pgp ATPase activity in the presence of Na3VO4 ([4]; 200 µM Na3VO4, range of ATP concentrations, Equation 1): 172 ± 24 nmol/min/mg
Na3VO4 sensitive VMAX for Pgp ([4]; difference in VMAX without and with 200 µM Na3VO4): 447 ± 30 nmol/min/mg
